For the experiment, the system named is MDA-MB-468 cells. The experiment can be described thus: MDA-MB-468 cell viability, CellTiter-Glo, 24 hrs. The experiment is classed as cell-based, human. The following applies: 24 hrs incubation; for EC50: Homo sapiens. The method, then: MDA-MB-468 cells, isolated from a pleural effusion of a patient with metastatic adenocarcinoma of the breast, is a triple negative breast cancer (TNBC) cell line. The IC 50 value of E05 or lapatinib (Sigma) or the structural analogues of E05 were tested in this cell line.
Briefly, MDA-MB-468 cells (ATCC #HTB-32) were seeded with a density of 5,000 cells per well in a 96 well white plate (Costar Cat #3917) in DMEM media supplemented with 10% FBS (assay medium). The plates were incubated at 37° C., 5% CO2 for 24 hr. E05 and analogues were diluted in the assay medium and added to the respective wells of the assay plate. The plates were further incubated at 37° C., 5% CO2 for 24 hrs. After the incubation, the cell viability was assessed using CellTiter-Glo® and the plates were read for luminescence using Cytation 5 (Biotek). The relative luminescence unit (RLU) obtained was plotted against the concentration and EC50 values were estimated using Graphpad Prism 5 software (FIG. 15 and Table 2).

Molecules are shown by their SMILES.

The values that follow come from patent US20220370385A1, “COMPOSITIONS FOR USE IN INHIBITING SRC KINASE AND TREATING AND PREVENTING ASSOCIATED DISORDERS” (Enzene Biosciences Ltd., priority 2019, published 2022).

For the molecule `O=C(O)CCc1ccc(O)cc1` [E05_D, 3-(4-Hydroxyphenyl)-propionic acid (Phloretic acid)], the “Activity (EC50)” value is reported as “Inactive”.

As to `COc1cc(C(=O)O)ccc1O` [E05_G, 4-Hydroxy-3-methoxy-benzoic acid (Vanillic acid)], the “Activity (EC50)” value is given as “Inactive”.

Take `O=C(O)CCc1cccc(O)c1` [E05_C, 3-(3-Hydoxyphenyl)-propionic acid]: the “Activity (EC50)” value is “Inactive”.

Consider `O=C(O)/C=C/c1ccc(O)c(O)c1` [E05_A], for which the EC50 was found to be 122 µM.

`Oc1ccccc1O` [E05_E, 1,2-Dihydroxybenzene (Catechol)] gave an EC50 of 103 µM.

For the molecule `COc1ccc(C(=O)O)cc1O` [E05_F, 3-Hydroxy-4-methoxy-benzoic acid (Isovamillic acid)], the “Activity (EC50)” value was “Inactive”.

As to `O=C(O)c1ccc(O)cc1O` [E05_H, 2,4-Dihydroxybenzoic acid], the “Activity (EC50)” value is recorded as “Inactive”.

As for `O=C(O)CCc1ccc(O)cc1O` [E05_B, 3-(2,4-Hydroxyphenyl)-propionic acid], the “Activity (EC50)” value was “Inactive”.
